Laboratory results published in patent US20240277716A1, “Suppressive T Cell Populations and Methods of Cancer Immunotherapy” (La Jolla Institute for Immunology, priority 2021, published 2024).

Columns and labels:
Assay type in all cases: in vivo, mouse
[1] = tested on: DSS-induced acute colitis; assay: Dextran Sulfate Sodium (DSS)-induced acute colitis model
Protocol: Colitis experiments. […] Body weight of the mice was monitored. Colon tissues were collected for histological analysis at the endpoint. Whole colons were harvested from mice between cecum and rectum. Stools were flushed out of lumen with PBS. Then colons were fixed with zinc formalin for 5 minutes. Fixed colons were opened longitudinally, flattened, cut into 3 fragments and further fixed in zinc formalin for 48 hours in cassettes. After fixation, samples were transferred to 70% isopropanol for long term storage or H&E staining. Slides were scored blindly according to the following criteria: inflammation, area of infiltration (extent), crypt damage and edema. The colon was divided into 3 equal parts and the middle section was utilized for scoring. Four randomly selected areas were analyzed, and a histological score was determined.

[2] = tested on: TREG cells from tumor, spleen and colonic tissue; assay: Single-cell RNA-seq and flow cytometry of TREG and CD8+ T cells from tumor, spleen and colon of B16F10-OVA tumor-bearing mice
Protocol: (§1) Murine lymphocytes were isolated from the spleen by mechanical dispersion through a 70-μm cell strainer (Miltenyi) to generate single-cell suspensions. RBC lysis (Biolegend) was performed to remove red blood cells. Tumor samples were harvested and lymphocytes were isolated by dispersing the tumor tissue in 2 ml of PBS, followed by incubation of samples at 37° C. for 15 min with DNase I (Sigma) and Liberase DL (Roche). The suspension was then diluted with MACS buffer and passed through a 70-μm cell strainer to generate a single cell suspension. Colons were collected and rinsed in 1 mM dithiothreitol (DTT) to remove feces. Each colon was cut into 2-3 mm pieces and incubated 3 times in pre-digestion solution (HBSS containing 5% FBS and 2 mM EDTA) at 37° C. for 20 min under high rotation to remove epithelial cells. Then tissues were minced with scissors and incubated with digestion solution (HBSS containing 5% FBS, 100 μg/ml DNase I (Sigma) and 1 mg/ml collagenase (Sigma)) at 37° C. for 20 min under high rotation to get single cell solutions of lamina propria cells. Cells were prepared in staining buffer (PBS with 2% FBS and 2 mM EDTA), FcR blocked (clone 2.4G2, BD Biosciences) and stained with antibodies as indicated below for 30 min at 4° C.; secondary stains were done for selected markers. Samples were then sorted or fixed and intracellularly stained using a FoxP3 transcription factor kit according to manufacturer's instructions (eBioscience). Cell viability was determined using fixable viability dye (ThermoFisher). The following antibodies from BD Biosciences, Biolegend, Miltenyi or eBbioscience were used: anti-human PD-1 (EH12.1, 1:30), CD4 (OKT4, 1:30), CD137 (4B4-1, 1:30), GITR (108-17, 1:30), ICOS (C398.4A, 1:50), CD8A (SKI, 1:30), CD25 (M-A251, 1:20), CD3 (SK7, 1:30), CD127 (eBioRDR5, 1:50), CD45 (HI30, 1:30), CD14 (HCD14, 1:50), CD20 (2H7, 1:50); anti-mouse CD3 (145-2C11, 1:100), CD4 (RM4-5, 1:100), CD8 (53-6.7, 1:100), PD-1 (29F1.A12, 1:100), ST2 (U29-93, 1:100) Ki67 (B56, 1:40), TOX (REA473, 1:40), CD19 (6D5, 1:100), CD45 (30-F11, 1:100), FOXP3 (FJK-16s, 1:100), GZMB (QA16A02, 1:40). All samples were acquired on a BD FACS Fortessa or sorted on a BD FACS Fusion (both BD Biosciences) and analyzed using FlowJo 10.4.1 for subsequent single-cell RNA-seq analysis.
Murine TREG cells. […] Reads were mapped with Cell Ranger followed by QC (github.com/vijaybioinfo/quality_control) and demultiplexed with bcl2fastq using default parameters. […] Differential expression was calculated with MAST^38 (v1.10.0) DESeq2 (v1.24.0) as previously described^37 and genes with an adjusted P-value <0.05 and a fold change of >log2 0.5 were defined as significant. […]

[3] = tested on: B16F10-OVA melanoma cells; assay: B16F10-OVA melanoma model, PI-3065 in diet: tumor volume and flow cytometry
Protocol: (§2) Tumor experiments. Mice were inoculated with 1-1.5×10^5 B16F10-OVA cells subcutaneously into the right flank. Mice were put on either a control diet or a diet containing a PI3Kδ inhibitor PI-3065 on day 1 or day 5 after tumor inoculation. Diets were prepared using powdered 2018 global rodent diet (Envigo) mixed with or without PI-3065 at 0.5 g/kg, which corresponds to a daily dose of 75 mg/kg as used previously. To pellet the food, 50% v/w water was added to the diet and dough thoroughly mixed, compressed, molded and dried before use. Tumor size was monitored every other day, and tumor harvested at indicated time points for analysis of tumor-infiltrating lymphocytes. Tumor size limit of 15 mm in diameter was not exceeded and volume was calculated as ½×D×d^2, where D is the major axis and d is the minor axis, as described previously^36.
as §1

[4] = tested on: colonic CD8+ and CD4+ T cells; assay: scRNA sequencing of colonic CD8+ and CD4+ T cells under different PI3Kδi dosing regimens
Protocol: as §2
Murine colonic CD4+ and CD8+ T cells. Single-cell RNA-seq was performed by using the 10× platform. Mapping, aggregation, and QC was carried out as described above with the following thresholds: genes per cells range of [300, 4500], UMI content per cell […], percent of mitochondrial counts of <=10%, and a doublet score of <=0.3. Cluster of contaminant cells expressing epithelial, monocyte, and fibroblast markers was eliminated after the first round of clustering. The final number of cells were n=6415 CD4^+ T cells and n=2715 CD8^+ T cells.

Question: What does the source list for `Fc1ccc2[nH]ccc2c1-c1nc(N2CCOCC2)c2sc(CN3CCN(CC4CC4)CC3)cc2n1` [PI-3065]?
Answer: body weight ([1]; 2.5% DSS from day 14-20, PI-3065 diet vs placebo): swift reduction in body weight; deaths prior to experimental endpoint ([1]; PI3Kδ inhibitor-treated group, n=10): one; effect on colitis ([1]; PI-3065 diet plus 2.5% DSS): exacerbates colitis; overall colitis score ([1]; inflammation, crypt damage, extent, vs placebo): higher overall colitis score; differentially expressed genes in colonic TREG cells ([2]; PI3Kδi vs placebo treatment): 869 genes; colonic TREG subsets (clusters 2 and 8) ([2]; PI3Kδi-treated mice): depleted; CD8+ T cells in colonic tissue ([2]; colonic, but not splenic tissue): significant increase; ratio of CD8+ T cells to ST2 TREG cells ([2]; protein level): substantially increased; tumor volume ([3]; C57BL/6 wild-type mice, PI-3065 diet vs control): significant decrease; TREG cells in tumor, spleen and colon ([3]; PI3Kδi-treated vs placebo-treated mice): significant decrease; tumor growth ([3]; continuous dosing (for the duration of the experiment)): decrease in tumor growth; CD8+ T cell infiltration in colonic tissue ([3]; continuous dosing only): increased; TREG cell levels in colonic tissue ([3]; continuous dosing only): decreased; intratumoral CD8+ T cells ([3]; high PD-1, increased proliferative and cytotoxic capacity): significant increase; tumor growth ([3]; infrequent dosing (2 days on, 5 days off), 2 cycles): decrease in tumor growth, albeit not significantly; tumor growth ([3]; intermittent dosing (4 days on, 3 days off), 2 cycles): significant decrease in tumor growth; TOX in CD8+ T cells ([3]; post-PI3Kδi): increased; innate-like CD8+ T cells in colon ([4]; across dosing regimens): dosing-dependent decrease; TC17 and TH17 subsets and pertaining proliferating clusters, share of all cells ([4]; continuous dosing regimen): ~50%; TC17 and TH17 subsets and pertaining proliferating clusters ([4]; other treatment conditions (intermittent, infrequent, control)): nearly completely absent
